We go through twelve compounds from ChEMBL document CHEMBL1128840, “Synthesis of myo-inositol-1-phosphatase inhibitors in which the phosphate group is replaced by less polar groups” (Bioorg Med Chem Lett, 1995).

As a reminder, the IC50 is the concentration that gives 50% inhibition.

Molecules are shown by their SMILES. A value given as a limit tells only on which side of the number the result lay.

The target of one experiment is T1, Inositol monophosphatase 1 (Bos taurus, UniProt P20456).
T1 sequence (P20456 whole entry): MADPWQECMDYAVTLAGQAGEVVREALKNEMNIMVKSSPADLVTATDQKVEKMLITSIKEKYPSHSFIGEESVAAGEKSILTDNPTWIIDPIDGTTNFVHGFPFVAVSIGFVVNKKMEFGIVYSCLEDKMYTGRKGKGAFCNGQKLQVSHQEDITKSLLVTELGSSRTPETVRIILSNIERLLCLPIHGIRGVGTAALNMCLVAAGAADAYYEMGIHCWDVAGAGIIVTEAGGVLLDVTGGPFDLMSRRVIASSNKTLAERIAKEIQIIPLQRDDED
In words: Compound was tested for inhibitory activity against myo-inositol-1-phosphatase; compound was not active at 300 uM.
Regarding `NC(=O)O[C@@H]1[C@H](O)C[C@@H](O)C[C@H]1OCCCCc1ccccc1O`, the IC50 result was “Not Active”.

The target of the next experiment is T1, Inositol monophosphatase 1. In words: Compound was tested for inhibitory activity against myo-inositol-1-phosphatase; weak inhibitor.
`O=C(O)CO[C@@H]1[C@H](O)C[C@@H](O)C[C@H]1OCCCCc1ccccc1O` had an IC50 of over 300 µM.

For the next experiment, the target named is T1, Inositol monophosphatase 1. In words: Inhibitory activity against myo-inositol-1-phosphatase.
`O=S(=O)(O)O[C@@H]1[C@H](O)C[C@@H](O)C[C@H]1OCCCCc1ccccc1O`: the IC50 was found to be 90 µM.

For `O=P(O)(O)O[C@@H]1[C@H](O)C[C@@H](O)C[C@H]1OCCCc1ccccc1`, the midpoint of inhibition, the IC50, lay at 0.8 µM.

As for `CC(C)OP(=O)(O)O[C@@H]1[C@H](O)C[C@@H](O)C[C@H]1OCCCCc1ccccc1O`, it took 50 µM to reach half-maximal inhibition (IC50). This IC50 lies about 62-fold higher than the previous one.

Turning to `O=C1CCCCC1CCCCO[C@@H]1C[C@H](O)C[C@@H](O)[C@H]1OS(=O)(=O)O` (some centres not stated), the IC50 amounted to 100 µM.

As for `O=P(O)(O)O[C@@H]1[C@H](O)C[C@@H](O)C[C@H]1OCCCCc1ccccc1O`, the IC50 is 0.3 µM.

In turn, `CC(=O)NS(=O)(=O)O[C@@H]1[C@H](O)C[C@@H](O)C[C@H]1OCCCCC1CCCCC1=O` (some centres not stated) came in with an IC50 of over 300 µM.

As for `NS(=O)(=O)O[C@@H]1[C@H](O)C[C@@H](O)C[C@H]1OCCCCC1CCCCC1=O` (some centres not stated), the IC50 turned out to be 200 µM.

Compound `NS(=O)(=O)O[C@@H]1[C@H](O)C[C@@H](O)C[C@H]1OCCCCc1ccccc1O` yielded an IC50 of over 300 µM.

Take `CP(C)(=O)O[C@@H]1[C@H](O)C[C@@H](O)C[C@H]1OCCCCc1ccccc1O`: the IC50 was over 300 µM.

Take `CC(=O)NS(=O)(=O)O[C@@H]1[C@H](O)C[C@@H](O)C[C@H]1OCCCCc1ccccc1O`: the IC50 was over 300 µM.
